Experimental data as given in a melting point compilation (Tetko et al.; mined from patent text by program, amines drawn as free bases though some values may be those of a salt).

Row | melting point [°C] | SMILES
1 | 95 to 96 | CC1(C)C=Cc2cc(S(=O)(=O)c3ccccc3)ccc2O1
2 | 206 to 208 | COc1ccc(Cn2c3ccccc3c3c(N)c(C(=O)O)c(C)nc32)cc1
3 | 79 to 80 | CCOC(=O)c1cc(=O)c2c(OCC(C)(O)Oc3ccc(Br)cc3)cccc2o1 (stereo unspecified)
4 | 57 to 60 | COc1ccc(S(=O)(=O)C(Cc2cccnc2)(CC2CCCCC2)C(=O)NO)cc1 (stereo unspecified)
5 | 202 to 203 | COc1ccc(-c2ccc3cnc(Nc4ccc5c(c4)N(S(C)(=O)=O)CCC5)nn23)cn1
6 | 137 to 159 | COc1cc2cc3c(Nc4ccc(F)c(Cl)c4)c(C#N)cnc3cc2cc1OCCCl
7 | > 250 | Cn1c(N=C=O)c(-c2ccccc2)c2cc([N+](=O)[O-])ccc21
8 | 250 to 251 | CC(C)(C)c1ccc(-c2csc(-c3cccc(C(=O)O)c3)n2)cc1
9 | 188 to 191 | Cc1ccc(-c2nc(C(F)(F)F)nc(NN)c2-c2ccccc2)cc1
10 | 155 to 157 | O=c1ccn(-c2cccc(C(F)(F)F)c2)nc1-c1ccnn1CC1CC1
11 | 248 to 249 | O=C(O)Cc1ccc(-c2cn3ccsc3n2)cc1
12 | 95 | CC1Cc2ccc(C#N)cc2C1=O (stereo unspecified)
13 | 197 to 199 | O=C1CCC2(CCC(=O)c3ccccc32)C(=O)N1 (stereo unspecified)
14 | 212 | CC(=O)Nc1nc(CCc2ccc(N)cc2)c(C(=O)O)s1
15 | 72 | CCN1C(=O)CCC2=C1CCc1cc(F)ccc12
16 | 157 to 158 | Cc1cc2c(cc1S(=O)(=O)c1ccc(F)cc1)OC(C(=O)O)O2 (stereo unspecified)
17 | 110 | CCOc1ccc(-c2c(S(C)(=O)=O)ccc(C(=O)c3cnn(C(C)(C)C)c3O)c2C)cc1
18 | 106 to 107 | O=C(c1ccccc1)c1ccc2c(c1)CC(C(=O)NCCO)C2 (stereo unspecified)
19 | 28 to 30 | CCOC(=O)CCCC(=NO)c1ccccc1
20 | 195 to 197 | O=Cc1cccc([N+]([O-])=Cc2cccc([N+](=O)[O-])c2)c1
21 | 118 to 119 | CC(C)C(C)(C(N)=O)N1C(=O)c2ccccc2C1=O (stereo unspecified)
22 | 146 to 147 | Brc1ccc2cc(Cc3cc4ccc(Br)cc4o3)oc2c1
23 | 105 to 107 | CN1C(=O)CNC2=C1C=NC(Cl)=CN2c1ccccc1
24 | 87 to 88 | CCCc1nn(-c2ccc(C(F)(F)F)cn2)cc1CCCOc1ccccc1CCC(=O)O
25 | 166 to 168 | Clc1ccc(Cl)c(-c2nnnn2Cc2cccnc2)c1
26 | 176 to 198 | COc1ccc(-c2c(Cl)ncn2-c2ccc(S(C)(=O)=O)cc2)c(F)c1
27 | 192 | c1ccc2c(c1)ncc1nc(C3CCCC3)[nH]c12
28 | 71 to 73 | CCOC(=O)c1cn2c3c(cccc3c1=O)C1CCCCC12 (stereo unspecified)

Row | melting point [°C] | SMILES
29 | 195 to 196 | OC(CCc1ccccc1)c1cnc2sc3cc(F)ccc3n12 (stereo unspecified)
30 | 260 to 262 | COc1cccc2c1nc(C(F)F)n2-c1nc(Nc2ccc(Cl)nc2)nc(N2CCOCC2)n1
31 | 56 to 58.5 | OCCc1ccc(OCC2CO2)cc1 (stereo unspecified)
32 | 101 to 103 | CSc1ccc(/C=C2/C(C)=C(CCO)c3cc(F)ccc32)cc1
33 | 98.9 | O=[N+]([O-])c1cc(Cn2cncn2)ccc1Cl
34 | 88 to 90 | Cc1ccc2c(c1)S(=O)(=O)NCN2CCF
35 | 234 to 236 | CCc1[nH]c(=O)[nH]c1C(O)c1ccncc1 (stereo unspecified)
36 | 246 to 248 | CC(=O)Nc1ccc(-n2c(N)nc3ccccc32)cc1
37 | 181 to 182 | CCOC(=O)Cn1nc(O)c2ccccc21
38 | 51 to 54 | O=[N+]([O-])c1ccccc1-c1cnoc1
39 | 127 to 128 | COc1ccc(SC#N)c([N+](=O)[O-])c1
40 | 180 to 181 | O=C(Nc1nccs1)c1cccc(-c2ccc3c(c2)C(Oc2ccc(Cl)cc2Cl)CC3)c1 (stereo unspecified)
41 | 121 to 123 | CCCc1c(O)ccc2oc(Cc3ccc(F)cc3)c(C)c12
42 | 187 | c1ccc2c(c1)Cc1cc(C3(Cn4cncn4)OCCO3)ccc1-2
43 | 52 to 54 | CCOC(=O)c1sc(Oc2ccccc2)nc1C(F)(F)F
44 | 170 to 173 | Cc1cnc2ccc(N)cc2n1
45 | 201 to 202 | COc1cccc2c1CCc1c-2occ(C=O)c1=O
46 | 87 to 89 | Cc1noc2cc3c(cc12)C1(CO3)C(=O)N(Cc2nc(C(=O)N(C)C)co2)c2ccccc21 (stereo unspecified)
47 | 153 to 154 | Cc1ccc2c3c(ccc2n1)OC[C@H](CN1CCN(c2ccc4cc(Br)ccc4n2)CC1)O3
48 | 156 to 159 | CCc1nc2cc(Nc3nccc(-c4ccc(N5CCNCC5)nc4)n3)ccc2o1
49 | 200 to 201 | OC1CSC(Oc2cncc(-c3ccc(F)c(Cl)c3)c2)C(O)C1O (stereo unspecified)
50 | 150 to 153 | CC(C)(C)N1CCCC1=C(C#N)c1ccc(Cl)cc1
51 | 119 | Clc1ccc(C2(Cn3cncn3)OC2c2ccc(Cl)cc2Cl)cc1 (stereo unspecified)
52 | 99 to 102 | CCOC(=O)c1nc2ccc(F)cc2n(CC)c1=O
53 | 190 to 191 | O=C(NCCCCc1ccc(-c2ccc(=O)[nH]n2)cc1)c1cccnc1
54 | 135 to 136 | Nc1ccc(C(=O)OC2CCN(Cc3ccccc3)CC2)cn1
55 | 70 to 73 | O=C(Cl)Cc1ccc(-c2ccc(F)cc2F)c(F)c1

The remaining lines, values behind:

Row | SMILES | melting point [°C]
56 | C#CCCC(O)=C(C#N)C(=O)Nc1ccc(C(F)(F)F)cc1 | 172
57 | O=C(O)CCCCCCCCCCCCCCCCCCCN1C(=O)C=CC1=O | 104 to 106
58 | COC(=O)c1ccc(OCCNC(=O)c2ccc(Cl)cc2)cc1 | 125 to 127
59 | COc1cc(NC(=O)C(F)(F)F)ccc1N1CCN(CCN(C(=O)C2CCCCC2)c2ccccn2)CC1 | 144 to 148
60 | CCCN(CCC)CCCC1CCN(CCNC(=O)N2c3ccccc3NC(=O)c3csc(C)c32)CC1 | 114 to 115
61 | Cc1ccc(C(O)CN(C)Cc2cc3c(=O)c(C(=O)NCc4ccc(Cl)cc4)cn(C)c3o2)o1 (stereo unspecified) | 130 to 132
62 | COC(=O)C(C#N)=C(O)c1cc(F)c(F)c(F)c1F | 71 to 73
63 | O=C1CC(C(=O)O)C2(CCCCC2)C1 (stereo unspecified) | 146 to 147
64 | N#Cc1c(N2CCN(C(=O)c3cccs3)CC2)c2cc(Cl)cnc2n(Cc2ccccc2)c1=O | 221
65 | O=C(Nc1cccc2c1C(=O)N(CC(=O)N1CCN(c3ccncc3)CC1)C2=O)c1ccc(Cl)s1 | 207
66 | CC(C)(C)c1ccc([C@H]2CCCN2[S@@](=O)C(C)(C)C)cc1 | 45 to 50
67 | CCC1(C)OC(c2ccc(S(C)(=O)=O)cc2)=C(c2cc(F)cc(F)c2)C1=O (stereo unspecified) | 122 to 124
68 | CCCc1c(OCc2cccc(OCc3ccc4ccccc4n3)c2)ccc2c(=O)cc(C(=O)O)oc12 | 218 to 222
69 | CC(=O)NC(=CBr)C(=O)OC(C)(C)C | 106 to 107
70 | NC(=O)C(F)(I)C(F)(F)F (stereo unspecified) | 75 to 77
71 | CSCc1nc(C(C)(C)O)c(C(=O)O)n1Cc1ccc(-c2ccccc2-c2nnn[nH]2)cc1 | 172 to 181
72 | NC1C(=O)N(CC2C3CC4CC(C3)CC2C4)c2ccccc2N(c2ccccc2)C1=O (stereo unspecified) | 209 to 210
73 | CCC(=O)N1N=C(c2ccc(N)c(C)c2)c2cc(Cl)ccc2C=C1C | 218 to 221
74 | CCCCN(CCCC)S(=O)(=O)N[C@@H](Cc1ccc(NC(=O)c2c(Cl)cncc2Cl)cc1)C(=O)O | 167
75 | Cc1c(C)c(CC(C)(C)C#N)c(C)c(C)c1CC(C)(C)C#N | 187 to 190
76 | CC(N1CCN(c2ncnn2Cc2ccc(C(C)(C)C)cc2)CC1)C(O)(Cn1cncn1)c1ccc(F)cc1F (stereo unspecified) | 73 to 75
77 | COc1cccc(OC2CN([C@H]3CC[C@@H](c4cc5cc(C#N)ccc5[nH]4)CC3)C2)c1 | 126 to 127
78 | Clc1ccc2c(n1)C(c1ccccc1Cl)NCc1nncn1-2 (stereo unspecified) | 206 to 208

Row | SMILES | melting point [°C]
79 | O=C1CCCC(Sc2ccccc2)=C1C(=O)c1ccc(Cl)c(OCCn2cnnn2)c1Cl | 64 to 70
80 | O=C(O)c1cc(N2CCN(Cc3ccccc3)CC2)ccc1[N+](=O)[O-] | 172
81 | CC(C)(C)c1cc(O)n[nH]1 | 205 to 206
82 | N#Cc1ccc(C(=O)Nc2ccc(-n3nc(C(F)(F)F)cc3C(F)(F)F)cc2)cc1 | 169 to 171
83 | CC(=O)OC1CC2C3CCC(C(C)CCCC(C)C)C3(C)CCC2C2(C)CC(F)C(=O)CC12 (stereo unspecified) | 153 to 156
84 | COc1ccc(CNC(Nc2ccccc2)=C(C#N)C(=O)OC(C)(C)C)cc1 | 158 to 159
85 | O=C(Nc1ccccc1C(=O)NCCc1ncc[nH]1)c1ccc(-c2ccccc2)cc1 | 197 to 201
86 | COC(=NC(=O)N(C)C)NC(=O)NC(C)(C)C | 96 to 98
87 | Clc1ccc2c(c1)C(c1ccccc1)=NCc1c[nH]cc1-2 | 203 to 206
88 | CC(C)c1ccc(S(=O)(=O)NC(=O)C(Oc2cc(OCc3ccsc3)ccc2C#N)c2ccccc2)cc1 (racemic) | 187 to 189
89 | CC(C)(C)OC(=O)NCC(O)c1cccs1 (stereo unspecified) | 101 to 102
90 | CSc1ccc(CN(C2CCOCC2)S(=O)(=O)c2ccc(Cl)cc2)cc1 | 124 to 127
91 | COCCNC(=O)c1ccnc(-c2cccc3cc(Cc4cccc(C(F)(F)F)c4)sc23)c1F | 94 to 95
92 | COC(=O)C(C(=O)OC)=C(C)N | 81 to 82
93 | COCCc1ccc(OCC(O)CN2CCC(N3CCCNC3=O)CC2)cc1 (stereo unspecified) | 113 to 115
94 | CS(=O)(=O)NC(=O)C1(CCCCCCCCCCCCC2(C(N)=O)CC2)CC1 | 119 to 120
95 | CCCc1ccc(OCc2ccc(OCc3nc(-c4ccccc4)oc3C)cc2)cc1OCC(=O)OC | 100 to 101
96 | CCOC(=O)c1ncn2c1C(C)N=C(c1ccccc1)c1cc(C#C[Si](C)(C)C)ccc1-2 (stereo unspecified) | 160 to 162
97 | O=C(O)c1ccc(CCCc2ccccc2CCc2ccccc2)cc1 | 97 to 98
98 | N#CCCCOc1ccc(C(=O)O)cc1 | 193 to 194
99 | COc1cc(Br)c(I)cc1OC | 98 to 100
100 | N#Cc1nn(-c2c(Cl)cc(C(F)(F)F)cc2Cl)c(C=O)c1SC(F)(F)F | 90
101 | Oc1ccc2c(c1)OCC(c1ccc(C(F)(F)F)cc1)C2c1ccc(OCCN2CCCCC2)cc1 (stereo unspecified) | 117 to 119
